Measurements taken from ChEMBL document CHEMBL4725289, “Structure-activity relationship studies for the development of inhibitors of murine adipose triglyceride lipase (ATGL)” (Bioorg Med Chem, 2020).

How the values were obtained:
[1] = target: T1, Patatin-like phospholipase domain-containing protein 2 (Mus musculus, UniProt Q8BJ56); test: Inhibition of murine ATGL expressed in COS-7 cells; assay type: cell-based
T1 sequence (Q8BJ56 whole entry): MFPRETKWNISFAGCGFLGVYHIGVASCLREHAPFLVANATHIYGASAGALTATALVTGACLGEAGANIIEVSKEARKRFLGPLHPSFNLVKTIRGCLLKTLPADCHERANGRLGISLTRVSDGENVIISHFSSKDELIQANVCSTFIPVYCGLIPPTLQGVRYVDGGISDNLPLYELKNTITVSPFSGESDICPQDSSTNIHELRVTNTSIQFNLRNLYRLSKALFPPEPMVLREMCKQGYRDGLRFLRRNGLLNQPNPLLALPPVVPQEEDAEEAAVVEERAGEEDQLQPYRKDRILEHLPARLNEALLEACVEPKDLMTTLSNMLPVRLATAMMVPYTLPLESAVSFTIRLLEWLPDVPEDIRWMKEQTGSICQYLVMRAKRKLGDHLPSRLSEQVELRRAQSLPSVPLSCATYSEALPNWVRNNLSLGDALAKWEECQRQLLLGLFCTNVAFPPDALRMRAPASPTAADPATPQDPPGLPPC

[2] = target: T2, Patatin-like phospholipase domain-containing protein 2 (Mus musculus) (UniProt Q8BJ56); test: Inhibition of murine ATGL expressed in COS-7 cells at 200 uM relative to control; assay type: cell-based
T2 sequence (whole entry): T1 sequence (Q8BJ56 whole entry)

[3] = In vivo inhibition of ATGL in mouse assessed as decrease in plasma fatty acid release at 200 uM, ip measured up to 8 hrs; assay type: functional; conditions: time hrs <=8
[4] = Inhibition of isoproterenol-stimulated lipolysis in ATGL-ko mouse at 200 uM, ip after 2 hrs; assay type: functional

## CCOC(=O)c1cccc(-c2ccc(N(C)C)cc2)c1
[1]
  IC50: 40 µM
[2]
  inhibition: 87%
[3]
  inhibition in vivo at 200 µM: 40%
[4]
  inhibition in vivo at 200 µM: 60%
